Reference: the NIST ThermoML archive (doi:10.1016/j.jct.2016.01.021)
Numbers after ± are expanded uncertainties.

Experiment: xn = mol fraction of the nth substance listed
Conditions: 100 kPa, Liquid; for viscosity: Capillary tube (Ostwald / Ubbelohde) method; for mass density: Vibrating tube method

For `CCCCCCCCCC(=O)OCC` [ethyl decanoate] + CCCCCCCCCCCCCCCC, the viscosity (298.15 K, x2 = 0) was 2.115 ± 0.045 mPa·s, the viscosity (298.15 K, x2 = 0.1) was 2.169 ± 0.046 mPa·s and the viscosity (298.15 K, x2 = 0.2) was 2.23 ± 0.047 mPa·s. The viscosity (298.15 K, x2 = 0.3) was 2.298 ± 0.049 mPa·s, the viscosity (298.15 K, x2 = 0.4) was 2.374 ± 0.05 mPa·s and the viscosity (298.15 K, x2 = 0.5) was 2.46 ± 0.052 mPa·s. It also gave a viscosity (298.15 K, x2 = 0.6) of 2.556 ± 0.054 mPa·s, a viscosity (298.15 K, x2 = 0.7) of 2.664 ± 0.057 mPa·s and a viscosity (298.15 K, x2 = 0.8) of 2.785 ± 0.059 mPa·s. It also gave a viscosity (298.15 K, x2 = 0.9) of 2.923 ± 0.062 mPa·s, a mass density (298.15 K, x2 = 0) of 860.05 ± 0.83 kg/m3 and a mass density (298.15 K, x2 = 0.1) of 848.4 ± 0.83 kg/m3. The mass density (298.15 K, x2 = 0.2) was 837.44 ± 0.83 kg/m3, the mass density (298.15 K, x2 = 0.3) was 827.17 ± 0.83 kg/m3 and the mass density (298.15 K, x2 = 0.4) was 817.5 ± 0.83 kg/m3. For the same compound, the mass density (298.15 K, x2 = 0.5) was 808.41 ± 0.83 kg/m3, the mass density (298.15 K, x2 = 0.6) was 799.81 ± 0.83 kg/m3 and the mass density (298.15 K, x2 = 0.7) was 791.69 ± 0.83 kg/m3. The mass density (298.15 K, x2 = 0.8) was 783.98 ± 0.83 kg/m3, the mass density (298.15 K, x2 = 0.9) was 776.78 ± 0.83 kg/m3 and the viscosity (303.15 K, x2 = 0) was 1.919 ± 0.041 mPa·s. The viscosity (303.15 K, x2 = 0.1) was 1.966 ± 0.042 mPa·s, the viscosity (303.15 K, x2 = 0.2) was 2.019 ± 0.043 mPa·s and the viscosity (303.15 K, x2 = 0.3) was 2.079 ± 0.044 mPa·s. For the same compound, the viscosity (303.15 K, x2 = 0.4) was 2.144 ± 0.046 mPa·s, the viscosity (303.15 K, x2 = 0.5) was 2.219 ± 0.047 mPa·s and the viscosity (303.15 K, x2 = 0.6) was 2.303 ± 0.049 mPa·s. The viscosity (303.15 K, x2 = 0.7) was 2.396 ± 0.051 mPa·s, the viscosity (303.15 K, x2 = 0.8) was 2.501 ± 0.053 mPa·s and the viscosity (303.15 K, x2 = 0.9) was 2.618 ± 0.056 mPa·s. The mass density (303.15 K, x2 = 0) was 855.99 ± 0.83 kg/m3, the mass density (303.15 K, x2 = 0.1) was 844.41 ± 0.83 kg/m3 and the mass density (303.15 K, x2 = 0.2) was 833.53 ± 0.83 kg/m3. The mass density (303.15 K, x2 = 0.3) was 823.32 ± 0.83 kg/m3, the mass density (303.15 K, x2 = 0.4) was 813.71 ± 0.83 kg/m3 and the mass density (303.15 K, x2 = 0.5) was 804.69 ± 0.83 kg/m3. The mass density (303.15 K, x2 = 0.6) was 796.15 ± 0.83 kg/m3, the mass density (303.15 K, x2 = 0.7) was 788.08 ± 0.83 kg/m3 and the mass density (303.15 K, x2 = 0.8) was 780.42 ± 0.83 kg/m3. The mass density (303.15 K, x2 = 0.9) was 773.27 ± 0.83 kg/m3, the viscosity (308.15 K, x2 = 0) was 1.75 ± 0.037 mPa·s and the viscosity (308.15 K, x2 = 0.1) was 1.79 ± 0.038 mPa·s. For the same compound, the viscosity (308.15 K, x2 = 0.2) was 1.837 ± 0.039 mPa·s, the viscosity (308.15 K, x2 = 0.3) was 1.89 ± 0.04 mPa·s and the viscosity (308.15 K, x2 = 0.4) was 1.948 ± 0.041 mPa·s. The viscosity (308.15 K, x2 = 0.5) was 2.013 ± 0.043 mPa·s, the viscosity (308.15 K, x2 = 0.6) was 2.086 ± 0.044 mPa·s and the viscosity (308.15 K, x2 = 0.7) was 2.167 ± 0.046 mPa·s. The viscosity (308.15 K, x2 = 0.8) was 2.257 ± 0.048 mPa·s, the viscosity (308.15 K, x2 = 0.9) was 2.358 ± 0.05 mPa·s and the mass density (308.15 K, x2 = 0) was 851.92 ± 0.83 kg/m3. For the same compound, the mass density (308.15 K, x2 = 0.1) was 840.42 ± 0.83 kg/m3, the mass density (308.15 K, x2 = 0.2) was 829.61 ± 0.83 kg/m3 and the mass density (308.15 K, x2 = 0.3) was 819.48 ± 0.83 kg/m3. The mass density (308.15 K, x2 = 0.4) was 809.93 ± 0.83 kg/m3, the mass density (308.15 K, x2 = 0.5) was 800.96 ± 0.83 kg/m3 and the mass density (308.15 K, x2 = 0.6) was 792.49 ± 0.83 kg/m3. It also gave a mass density (308.15 K, x2 = 0.7) of 784.47 ± 0.83 kg/m3, a mass density (308.15 K, x2 = 0.8) of 776.87 ± 0.83 kg/m3 and a mass density (308.15 K, x2 = 0.9) of 769.76 ± 0.83 kg/m3. For the same compound, the viscosity (313.15 K, x2 = 0) was 1.603 ± 0.034 mPa·s, the viscosity (313.15 K, x2 = 0.1) was 1.639 ± 0.035 mPa·s and the viscosity (313.15 K, x2 = 0.2) was 1.68 ± 0.036 mPa·s. The viscosity (313.15 K, x2 = 0.3) was 1.726 ± 0.037 mPa·s, the viscosity (313.15 K, x2 = 0.4) was 1.777 ± 0.038 mPa·s and the viscosity (313.15 K, x2 = 0.5) was 1.835 ± 0.039 mPa·s. It also gave a viscosity (313.15 K, x2 = 0.6) of 1.899 ± 0.04 mPa·s, a viscosity (313.15 K, x2 = 0.7) of 1.97 ± 0.042 mPa·s and a viscosity (313.15 K, x2 = 0.8) of 2.049 ± 0.044 mPa·s. For the same compound, the viscosity (313.15 K, x2 = 0.9) was 2.137 ± 0.045 mPa·s, the mass density (313.15 K, x2 = 0) was 847.85 ± 0.83 kg/m3 and the mass density (313.15 K, x2 = 0.1) was 836.43 ± 0.83 kg/m3. The mass density (313.15 K, x2 = 0.2) was 825.69 ± 0.83 kg/m3, the mass density (313.15 K, x2 = 0.3) was 815.62 ± 0.83 kg/m3 and the mass density (313.15 K, x2 = 0.4) was 806.15 ± 0.83 kg/m3. The mass density (313.15 K, x2 = 0.5) was 797.24 ± 0.83 kg/m3, the mass density (313.15 K, x2 = 0.6) was 788.82 ± 0.83 kg/m3 and the mass density (313.15 K, x2 = 0.7) was 780.86 ± 0.83 kg/m3. For the same compound, the mass density (313.15 K, x2 = 0.8) was 773.31 ± 0.83 kg/m3, the mass density (313.15 K, x2 = 0.9) was 766.26 ± 0.83 kg/m3 and the viscosity (318.15 K, x2 = 0) was 1.474 ± 0.031 mPa·s. It also gave a viscosity (318.15 K, x2 = 0.1) of 1.506 ± 0.032 mPa·s, a viscosity (318.15 K, x2 = 0.2) of 1.544 ± 0.033 mPa·s and a viscosity (318.15 K, x2 = 0.3) of 1.585 ± 0.034 mPa·s. The viscosity (318.15 K, x2 = 0.4) was 1.63 ± 0.035 mPa·s, the viscosity (318.15 K, x2 = 0.5) was 1.68 ± 0.036 mPa·s and the viscosity (318.15 K, x2 = 0.6) was 1.737 ± 0.037 mPa·s. The viscosity (318.15 K, x2 = 0.7) was 1.799 ± 0.038 mPa·s, the viscosity (318.15 K, x2 = 0.8) was 1.869 ± 0.04 mPa·s and the viscosity (318.15 K, x2 = 0.9) was 1.947 ± 0.041 mPa·s. The mass density (318.15 K, x2 = 0) was 843.77 ± 0.83 kg/m3, the mass density (318.15 K, x2 = 0.1) was 832.43 ± 0.83 kg/m3 and the mass density (318.15 K, x2 = 0.2) was 821.76 ± 0.83 kg/m3. It also gave a mass density (318.15 K, x2 = 0.3) of 811.77 ± 0.83 kg/m3, a mass density (318.15 K, x2 = 0.4) of 802.35 ± 0.83 kg/m3 and a mass density (318.15 K, x2 = 0.5) of 793.51 ± 0.83 kg/m3. For the same compound, the mass density (318.15 K, x2 = 0.6) was 785.15 ± 0.83 kg/m3, the mass density (318.15 K, x2 = 0.7) was 777.25 ± 0.83 kg/m3 and the mass density (318.15 K, x2 = 0.8) was 769.76 ± 0.83 kg/m3. The mass density (318.15 K, x2 = 0.9) was 762.74 ± 0.83 kg/m3, the viscosity (323.15 K, x2 = 0) was 1.362 ± 0.029 mPa·s and the viscosity (323.15 K, x2 = 0.1) was 1.39 ± 0.03 mPa·s. It also gave a viscosity (323.15 K, x2 = 0.2) of 1.423 ± 0.03 mPa·s, a viscosity (323.15 K, x2 = 0.3) of 1.46 ± 0.031 mPa·s and a viscosity (323.15 K, x2 = 0.4) of 1.501 ± 0.032 mPa·s. The viscosity (323.15 K, x2 = 0.5) was 1.546 ± 0.033 mPa·s, the viscosity (323.15 K, x2 = 0.6) was 1.595 ± 0.034 mPa·s and the viscosity (323.15 K, x2 = 0.7) was 1.651 ± 0.035 mPa·s. For the same compound, the viscosity (323.15 K, x2 = 0.8) was 1.712 ± 0.036 mPa·s, the viscosity (323.15 K, x2 = 0.9) was 1.779 ± 0.038 mPa·s and the mass density (323.15 K, x2 = 0) was 839.69 ± 0.83 kg/m3. For the same compound, the mass density (323.15 K, x2 = 0.1) was 828.42 ± 0.83 kg/m3, the mass density (323.15 K, x2 = 0.2) was 817.83 ± 0.83 kg/m3 and the mass density (323.15 K, x2 = 0.3) was 807.9 ± 0.83 kg/m3. The mass density (323.15 K, x2 = 0.4) was 798.56 ± 0.83 kg/m3, the mass density (323.15 K, x2 = 0.5) was 789.78 ± 0.83 kg/m3 and the mass density (323.15 K, x2 = 0.6) was 781.48 ± 0.83 kg/m3. For the same compound, the mass density (323.15 K, x2 = 0.7) was 773.64 ± 0.83 kg/m3, the mass density (323.15 K, x2 = 0.8) was 766.2 ± 0.83 kg/m3 and the mass density (323.15 K, x2 = 0.9) was 759.24 ± 0.83 kg/m3.
